In patent publication US9403806B1, “Cognition enhancing compounds and compositions, methods of making, and methods of treating” (NeuroSolis, Inc., priority 2010, dated 2016):
Where two headings read alike, the source gives them in different places.

How the values were obtained:
CD-I mice = test: Apomorphine induced climbing model of psychosis; assay type: in vivo; settings: APO 2 mg/kg alone
Method: As described in Costall et. al. European Journal of Pharmacology 1978, 50, 39. individual CD-I mice, 1-2 months old, were placed in a cylindrical wire mesh cage (13.2 cm high×13.2 cm diameter) constructed of steel wire 1 mm thick spaced at 1.2 cm^2. Cylinders were placed in a standard OptiMICE mouse cage (29×32×9×29 cm and 14 cm high) with adequate wood chip bedding provided. Observations of climbing (defined as 3 or more paws of the ground) were carried out every 5 minutes at a duration of 1 minute for […]. Animals were injected subcutaneously under isoflurane anesthesia with test compounds, reference compounds, which included clozapine, haloperidol, olanzapine and xanomeline, or PBS as a control. This was followed 5 minutes later by 2 mg/kg apomorphine hydrochloride. All drugs were dissolved in PBS or a mixture of (by volume) 96% PBS and 4% hydroxypropyl-beta-cyclodextrin, and dosed at a rate of 5 ml per kilogram of body weight. Following injections, animals were replaced in the mesh cages and observed for climbing (defined as 3 or more paws off the ground) every 5 minutes for 1 minute for 60 minutes after dosing.

[1] = system: salivary gland inositol phosphate; test: In vivo tissue inositol phosphate signaling pathway activation, salivary gland; set-up: species or system Long Evans Hooded rats; settings: rat; for block of increase in salivary gland inositol phosphate caused by Compound 3: Compound 3 1 mg/kg, tertiary amine antagonist 0.1 mg/kg (FIGS. 8C, 8D); for inhibition of salivary gland inositol phosphate response to MCD-386: MCD-386 50 mg/kg, antagonist 0.3 mg/kg (FIG. 7)
Method: Experimental compounds or drug substances were administered using standard techniques to Long Evans Hooded rats weighing 225 to 350 grams, and which had been pretreated with a subcutaneous injection of lithium chloride at a suitable dose between 3 and 10 mmoles per kg. At suitable times the animals were briefly anesthetized using 5% isoflurane and euthanized by decapitation. The brains and submaxillary salivary glands were rapidly dissected out, and the hippocampuses were dissected from the brains. The dissected tissues were homogenized in a suitable volume of ice-cold phosphate-buffered saline containing 10 mM lithium chloride, pH7.4, using a tissue homogenizer, and used immediately or frozen in aliquots at −80 deg C. for future use. The concentration of inositol-1-phosphate was determined in the homogenates using the IPOne TR-FRET assay (CisBio cat no 621PAPEB), following the manufacturer's instruction

anesthetized rats = test: Salivation after iontophoretic transdermal co-delivery of agonist and antagonist; assay type: in vivo, Long Evans Hooded rats; settings: anesthetized rat, one patch with 1 mg Compound 3 plus 0.01 mg antagonist
Method: Experimental compounds and drug substances were delivered transdermally in rats using iontophoresis as follows. The fur was shaved from the backs of Long Evans Hooded rats weighing 225 to 325 grams, using electric clippers. Experimental compounds and drug substances were formulated at suitable concentrations an aqueous mixture of the following composition:
The polyvinyl alcohol/water was heated to 95 deg C. until it became clear, then the other constituents were added and mixed well. The mixture was introduced into suitable molds containing a disc-shaped cavity 2.2 cm diameter and 2.2 mm deep. Molds may be fabricated using two glass sheets separated by a silicone rubber sheet with suitable sized cavities and filling ports cut-outs. The molds were subject to 3 freeze-thaw cycles at −80 deg C. and 20 deg C. until a firm cryogel was obtained. The gels were separated from the molds and trimmed into a circular shape. The gel was placed in a silicone rubber casing with one face in contact with a circular silver foil anodic electrode (22 mm dia/250 microns thick), and the assembly was placed on the shaved skin of the rat such that the other face was in contact with the skin on one side of the back of the rat. The rubber casing formed a seal over and around the gel/electrode assembly. […] This was placed on the other side of the shaved back of the rat, the edges of the gel discs being about 20 mm apart at their nearest point. A DC voltage was applied across the two patches from a constant-current DC power supply and the voltage adjusted to obtain the desired current, such that the skin of the animal completed the electrical circuit.
The devices were placed on shaved backs of anesthetized rats and salivation was measured.
The animals were placed slightly head-down on an inclined, heated ramp. Rectal temperature was monitored using a thermocouple and the temperature of the heating pad was adjusted manually to maintain normal body temperature. Saliva was collected from the mouth by absorption onto pre-weighed slips of filter paper. The filter paper was changed periodically and the amount of saliva was measured by weighing the filter paper slips

[2] = target: T1, human muscarinic M1 receptors (Homo sapiens, UniProt P11229); assay type: cell-based; settings: for huM1/A9L Smax: percentage of maximal stimulation by carbachol; for huM1/A9L Potency relative to carbachol: relative to the potency of carbachol at its EC50
T1 construct: host or cells: A9L cells
T1 sequence (P11229 1-460): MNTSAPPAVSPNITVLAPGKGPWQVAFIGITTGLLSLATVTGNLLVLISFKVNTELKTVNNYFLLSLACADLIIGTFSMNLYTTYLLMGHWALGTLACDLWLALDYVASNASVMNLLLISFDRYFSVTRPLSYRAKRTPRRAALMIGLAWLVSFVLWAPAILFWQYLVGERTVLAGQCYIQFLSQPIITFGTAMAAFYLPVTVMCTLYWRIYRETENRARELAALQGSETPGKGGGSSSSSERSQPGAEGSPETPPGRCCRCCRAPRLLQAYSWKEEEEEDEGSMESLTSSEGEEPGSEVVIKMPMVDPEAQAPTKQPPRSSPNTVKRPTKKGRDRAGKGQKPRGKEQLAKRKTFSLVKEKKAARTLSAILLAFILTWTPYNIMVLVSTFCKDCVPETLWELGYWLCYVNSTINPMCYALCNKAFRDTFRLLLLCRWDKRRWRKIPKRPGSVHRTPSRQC

[3] = target: T2, human muscarinic M3 receptors (Homo sapiens, UniProt P20309); assay type: cell-based; settings: for huM3/A9L Smax: percentage of maximal stimulation by carbachol; for huM3/A9L Potency relative to carbachol: relative to the potency of carbachol at its EC50
T2 construct: host or cells: A9L cells
T2 sequence (P20309 whole entry): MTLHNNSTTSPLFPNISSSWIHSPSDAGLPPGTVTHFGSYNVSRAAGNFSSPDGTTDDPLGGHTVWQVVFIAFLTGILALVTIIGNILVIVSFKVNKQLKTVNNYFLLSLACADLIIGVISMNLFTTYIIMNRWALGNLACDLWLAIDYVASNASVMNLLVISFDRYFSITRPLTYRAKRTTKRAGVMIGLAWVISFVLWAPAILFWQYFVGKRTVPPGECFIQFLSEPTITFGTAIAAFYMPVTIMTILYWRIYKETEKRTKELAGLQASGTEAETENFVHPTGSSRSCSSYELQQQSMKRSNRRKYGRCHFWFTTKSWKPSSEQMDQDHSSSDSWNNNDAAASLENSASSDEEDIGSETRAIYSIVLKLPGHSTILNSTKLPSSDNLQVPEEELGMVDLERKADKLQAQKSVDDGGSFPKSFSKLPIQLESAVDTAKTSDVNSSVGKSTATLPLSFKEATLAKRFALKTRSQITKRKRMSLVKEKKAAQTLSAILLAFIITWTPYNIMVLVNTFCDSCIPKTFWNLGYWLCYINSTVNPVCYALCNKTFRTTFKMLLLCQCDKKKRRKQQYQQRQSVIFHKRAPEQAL

[4] = system: muscarinic M1 receptors in the hippocampus; test: In vivo inositol phosphate increase in hippocampus, Example 44; set-up: species or system Long Evans Hooded rats; settings: rat, 3 mg/kg sc, 5 mmole/kg LiCl
Method: (§1) In lithium chloride-treated laboratory rodents, engagement of muscarinic M1 receptors in the hippocampus may usefully be evaluated in vivo by measuring the increase in the tissue of inositol phosphate (Bymaster F P et al Brain Res 795 (1998) 179-190). This may also be extended to measure engagement of muscaric M3 receptors in the salivary glands.
(§2) Experimental compounds were administered subcutaneously at 3 mg/kg using standard techniques to Long Evans Hooded rats weighing 225 to 350 g, and which had been pretreated with a subcutaneous injection of lithium chloride at a suitable dose between 3 and 5 mmole/kg. At suitable times the animals were briefly anesthetized using 5% isoflurane and euthanized by decapitation. The brains and submaxillary salivary glands were rapidly dissected out, and the hippocampuses were dissected from the brains. The dissected tissues were homogenized in a suitable volume of ice-cold phosphate-buffered saline containing 10 mM lithium chloride (pH=7.4) using a tissue homogenizer, and used immediately or frozen in aliquots at −80° C. for future use. The concentration of inositol-1-phosphate was determined in the homogenates using the […] IP-One Terbium TR-FRET assay kit (Cisbio Bioassays, cat. #62IPAPEJ) according to the manufacturer's instructions.

[5] = system: muscarinic M3 receptors in the salivary glands; test: In vivo inositol phosphate increase in salivary glands, Example 44; set-up: species or system Long Evans Hooded rats; settings: rat, 3 mg/kg sc, 5 mmole/kg LiCl
Method: as §1, §2

[6] = system: pooled male human liver microsomes; test: Metabolism in human liver microsomes, Example 45; assay type: in vitro ADME
Method: Aliquots were removed every 2 hours, and 1% formic acid was added to halt the reaction. Samples were centrifuged, filtered through 0.2 micron spinfilter, and the amount of each compound in the supernatants was quantitated using LC/MS/MS as follows. The ultra-filtrates were subjected to reverse-phase liquid chromatography using a 150×2.1 mm Agilent C8-reverse phase column on a Shimadzu Prominence LC, eluting the compound with a gradient of 2%-50% acetonitrile+0.1% formic acid over 5 minutes. The concentration of the compound in the column effluent was measured using an Applied Biosystems API-3200 triple quadrupole mass spectrometer equipped with a Turbo V source (electrospray sample injection) system. The counts of the characteristic parent ions of the protonated compound and product ions were converted to concentration by comparison with a standard calibration curve. The parent/daughter ion pairs that were monitored for each compound were: 166.0/82.0 (105), 166.0/82.0 (106b), 166.0/82.0 (106a), 169.0/83.0 (136), 168.2/83.0 (121), 168.1/83.0 (122a), 168.1/83.0 (122b), 170.2/83.0 (134), 168.2/84.1 (135), 168.1/84.1 (137) and 169.2/82.1 (138).

in vitro = in vitro ADME; settings: pH 7.4, 24 hours, room temperature
Method: PAMPA is a useful in vitro model for predicting the passive diffusion of drugs across the blood-brain barrier (Li, D et al Eur jour of Med Chem 38 (2003) 223-232).
Compounds were diluted in a 100 mM phosphate buffer (pH 7.4) to a concentration of 400 μM and the stock solutions were placed into a 96-well filter plate (Millipore, #MAIPN4510) pre-wetted with 20 mg/mL porcine brain polar lipid extract in 100% dodecane (Avanti, #131022) and placed into a 96-well acceptor plate (Millipore, #MSSACCEPTOR) whose wells were filled with the same phosphate buffer as in the filter plate. This assembly was incubated at room temperature for 24 hours. The experiment was halted by separating the filter plate from the acceptor plate. Aliquots were removed from the filter plate wells, acceptor plate wells, and stock solutions, and 1% trifluoroacetic acid was added to each. All solutions were measured by LC/UV, and passive diffusion rates were calculated using the peak area values (Avdeef, Alex. 2003. Page 147 in Absorption and Drug Development. Hoboken, N.J.: John Wiley & Sons).

[7] = Blood and brain concentrations (rats), tail vein injection; assay type: in vivo, Long-Evans Hooded rats; settings: rat
Method: Long-Evans Hooded rats (Charles River: male, 230-300 g) were dosed with solutions of test compounds in PBS by tail vein injection. The dose for all compounds was 3 mg/kg. At one hour, the animals were anesthetized with isoflurane, and then euthanized by decapitation. Trunk blood was collected into a 1.5 mL microcentrifuge tube containing 15 U Heparin, and the plasma recovered after centrifugation. Brains were dissected, weighed, immediately chilled to 4° C., and homogenized using a PowerGen 125 homogenizer in five volumes of ice-cold 2% formic acid. Proteins were precipitated from plasma and brain homogenate with nine and five volumes respectively of ice-cold 2% formic acid and clarified by centrifugation. The supernatant was ultra-filtered by centrifugation through a 3K MWCO spin column (Pall Life Sciences), following the manufacturer's instructions. The concentration of compound in the ultra-filtrate was subjected to reverse-phase liquid chromatography using a 150×2.1 mm Agent C8 reverse-phase column on a Shimadzu Prominence LC, eluting the compounds with a gradient of 2% to 50% of acetonitrile+0.1% formic acid for all compounds. The concentration of the compound in the column effluent was measured using an Applied Biosystems API-3200 triple quadrupole mass spectrometer equipped with an electrospray sample injection system. The counts of the characteristic parent and product ions of each test compound were converted to concentration units by comparison with a standard curve.

[8] = as above; assay type: in vivo, Long-Evans Hooded rats; settings: rat, 3 mg/kg tail vein injection

SMILES | block of increase in salivary gland inositol phosphate caused by Compound 3 [1] | inhibition of salivary gland inositol phosphate response to MCD-386 [1] | reduction of salivation caused by transdermal iontophoretic delivery of Compound 3 (anesthetized rats) | huM1/A9L Smax [2] [%] | huM1/A9L Potency relative to carbachol [2] | huM3/A9L Smax [3] [%] | huM3/A9L Potency relative to carbachol [3] | Loss at 6 hrs (%) [6] [%] | other results
CN1CCc2cccc3c2[C@H]1Cc1ccc(O)c(O)c1-3 [APO, reference compound] | – | – | – | – | – | – | – | – | Climbing Mean (CD-I mice): 51.7 s
CCN(CC)CC#CCOC(=O)C(O)(c1ccccc1)C1CCCCC1 (stereo not shown) [oxybutinin] | less effective | less effective | reduced salivation, but were less effective | – | – | – | – | – | –
[2H]C([2H])([2H])c1noc(C23CNC([2H])([2H])C2C3)n1 (stereo not shown) [Compound 135, 5-(2,2-d2-3-azabicyclo[3.1.0]hexan-1-yl)-3-methyl-1,2,4-oxadiazole] | – | – | – | 70 | 1.39 | 46 | 0.49 | 26 | Increase in Inositol Phosphate in Hippocampus/Control ([4]; 3 mg/kg): 614%; Increase in Inositol Phosphate in Salivary Gland/Control ([5]; 3 mg/kg): 194%; PAMPA Permeability Coefficient (×10^6) (in vitro; 400 μM): 5.40 ×10^6; Brain/plasma ratio ([7]; Table 114, 3 mg/kg): 0.61; Plasma Concentration at 1 hr ([7]; 3 mg/kg tail vein injection): 13.8 µM; concentration at 1 h ([7]; 3 mg/kg tail vein injection, read-out: Brain Concentration at 1 hr): 7.7 µM; Plasma Terminal Half-life [8]: 1.0 h
NC(=O)C(c1ccccc1)(c1ccccc1)[C@@H]1CCN(CCc2ccc3c(c2)CCO3)C1 [darifenacin] | less effective | less effective | reduced salivation, but were less effective | – | – | – | – | – | –
Cc1noc(C23CNCC2C3)n1 (racemic) [Compound 105, 5-(3-Azabicyclo[3.1.0]hexan-1-yl)-3-methyl-1,2,4-oxadiazole] | – | – | – | 58 | 0.78 | 33 | 0.17 | 27 | Increase in Inositol Phosphate in Hippocampus/Control [4]: 563%; Increase in Inositol Phosphate in Salivary Gland/Control [5]: 219%; Papp at 24 h, 400 µM (in vitro; PAMPA, pH 7.4, 400 μM, read-out: PAMPA Permeability Coefficient (×10^6)): 4.49 ×10⁻⁶ cm/s; Kp at 1 h ([7]; male, Long-Evans Hooded, brain and plasma, intravenous, 3 mg/kg, Table 114, read-out: Brain/Plasma Ratio): 0.38; concentration at 1 h ([7]; male, Long-Evans Hooded, in vivo, 3 mg/kg, 3 mg/kg tail vein injection, read-out: Brain Concentration at 1 hr): 4.4 µM; concentration at 1 h ([7]; male, Long-Evans Hooded, in vivo, 3 mg/kg, 3 mg/kg tail vein injection, read-out: Plasma Concentration at 1 hr): 15 µM; half-life ([8]; male, Long-Evans Hooded, plasma, iv, 3 mg/kg, read-out: Plasma Terminal Half-life (converted)): 1.1 h
